Measured values taken from ChEMBL document CHEMBL1909046, “DrugMatrix in vitro pharmacology data”.

Target: T1, Alpha-1B adrenergic receptor (Rattus norvegicus, UniProt P15823)
T1 sequence (P15823 whole entry): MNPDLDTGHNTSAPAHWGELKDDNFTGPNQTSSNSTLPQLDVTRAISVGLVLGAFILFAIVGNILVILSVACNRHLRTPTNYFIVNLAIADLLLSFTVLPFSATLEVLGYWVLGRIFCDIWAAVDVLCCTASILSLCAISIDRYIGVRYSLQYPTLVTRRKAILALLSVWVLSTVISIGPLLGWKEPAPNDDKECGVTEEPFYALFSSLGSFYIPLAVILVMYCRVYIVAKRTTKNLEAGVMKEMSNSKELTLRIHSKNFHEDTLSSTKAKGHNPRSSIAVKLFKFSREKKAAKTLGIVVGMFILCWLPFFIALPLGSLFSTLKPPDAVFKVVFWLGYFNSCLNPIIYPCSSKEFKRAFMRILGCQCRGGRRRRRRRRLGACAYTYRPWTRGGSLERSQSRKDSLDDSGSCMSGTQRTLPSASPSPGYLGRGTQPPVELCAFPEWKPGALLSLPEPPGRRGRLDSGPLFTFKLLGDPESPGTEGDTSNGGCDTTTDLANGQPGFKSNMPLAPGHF
Assay: DRUGMATRIX: Alpha-1B adrenergic receptor radioligand binding (ligand: prazosin)
Type: cell membranes, Wistar, Liver, Membrane
Settings: Not Active = under 50% inhibition at 10 µM

Compound | IC50
CCCCC(=O)N(Cc1ccc(-c2ccccc2-c2nnn[nH]2)cc1)[C@H](C(=O)O)C(C)C | Not Active
O=C(O)COc1ccc(C(=O)c2cccs2)c(Cl)c1Cl | Not Active
C[C@@](Cc1ccc(O)c(O)c1)(NN)C(=O)O.O [CARBIDOPA] | Not Active
O=C(O)CCCCC1CCSS1 (stereo not drawn) [LIPOIC ACID, ALPHA] | Not Active
C[C@]12C=CC(=O)C=C1CC[C@@H]1[C@@H]2C(=O)C[C@@]2(C)[C@H]1CC[C@]2(O)C(=O)CO [PREDNISONE] | Not Active
COC(=O)[C@H]1[C@H]2C[C@@H]3c4[nH]c5cc(OC)ccc5c4CCN3C[C@H]2C[C@@H](OC(=O)c2cc(OC)c(OC)c(OC)c2)[C@@H]1OC [RESERPINE] | Not Active

Tested on: not listed separately
Assay: DRUGMATRIX: beta-Lactamase enzyme inhibition (substrate: Nitrocefin)
Set-up: species or system Bacillus cereus
Settings: Not Active = under 50% inhibition at 10 µM

Compound | IC50 | Ki
CCCCC(=O)N(Cc1ccc(-c2ccccc2-c2nnn[nH]2)cc1)[C@H](C(=O)O)C(C)C | Not Active | Not Active
O=C(O)COc1ccc(C(=O)c2cccs2)c(Cl)c1Cl | Not Active | Not Active
C[C@@](Cc1ccc(O)c(O)c1)(NN)C(=O)O.O [CARBIDOPA] | Not Active | Not Active
O=C(O)CCCCC1CCSS1 (stereo not drawn) [LIPOIC ACID, ALPHA] | Not Active | Not Active
C[C@]12C=CC(=O)C=C1CC[C@@H]1[C@@H]2C(=O)C[C@@]2(C)[C@H]1CC[C@]2(O)C(=O)CO [PREDNISONE] | Not Active | Not Active
COC(=O)[C@H]1[C@H]2C[C@@H]3c4[nH]c5cc(OC)ccc5c4CCN3C[C@H]2C[C@@H](OC(=O)c2cc(OC)c(OC)c(OC)c2)[C@@H]1OC [RESERPINE] | Not Active | Not Active

Tested on: not listed separately
Assay: DRUGMATRIX: Calcium Channel Type L, Dihydropyridine radioligand binding (ligand: [3H] Nitrendipine)
Type: cell membranes, Rattus norvegicus, Wistar, Cerebral cortex, Membrane
Settings: Not Active = under 50% inhibition at 10 µM

Compound | IC50 | Ki
CCCCC(=O)N(Cc1ccc(-c2ccccc2-c2nnn[nH]2)cc1)[C@H](C(=O)O)C(C)C | Not Active | Not Active
O=C(O)COc1ccc(C(=O)c2cccs2)c(Cl)c1Cl | Not Active | Not Active
C[C@@](Cc1ccc(O)c(O)c1)(NN)C(=O)O.O [CARBIDOPA] | Not Active | Not Active
O=C(O)CCCCC1CCSS1 (stereo not drawn) [LIPOIC ACID, ALPHA] | Not Active | Not Active
C[C@]12C=CC(=O)C=C1CC[C@@H]1[C@@H]2C(=O)C[C@@]2(C)[C@H]1CC[C@]2(O)C(=O)CO [PREDNISONE] | Not Active | Not Active

Same assay, conditions: Not Active = under 50% inhibition at 10 µM; read-out: IC50

Compound | IC50 [nM]
COC(=O)[C@H]1[C@H]2C[C@@H]3c4[nH]c5cc(OC)ccc5c4CCN3C[C@H]2C[C@@H](OC(=O)c2cc(OC)c(OC)c(OC)c2)[C@@H]1OC [RESERPINE] | 821

Same assay, conditions: Not Active = under 50% inhibition at 10 µM; read-out: Ki

Compound | Ki [nM]
COC(=O)[C@H]1[C@H]2C[C@@H]3c4[nH]c5cc(OC)ccc5c4CCN3C[C@H]2C[C@@H](OC(=O)c2cc(OC)c(OC)c(OC)c2)[C@@H]1OC [RESERPINE] | 528

Tested on: not listed separately
Assay: DRUGMATRIX: Sigma2 radioligand binding (ligand: [3H] Ifenprodil)
Type: cell membranes, Rattus norvegicus, Wistar, Brain, Membrane
Settings: Not Active = under 50% inhibition at 10 µM

Compound | IC50 | Ki
CCCCC(=O)N(Cc1ccc(-c2ccccc2-c2nnn[nH]2)cc1)[C@H](C(=O)O)C(C)C | Not Active | Not Active
O=C(O)COc1ccc(C(=O)c2cccs2)c(Cl)c1Cl | Not Active | Not Active
C[C@@](Cc1ccc(O)c(O)c1)(NN)C(=O)O.O [CARBIDOPA] | Not Active | Not Active
O=C(O)CCCCC1CCSS1 (stereo not drawn) [LIPOIC ACID, ALPHA] | Not Active | Not Active
C[C@]12C=CC(=O)C=C1CC[C@@H]1[C@@H]2C(=O)C[C@@]2(C)[C@H]1CC[C@]2(O)C(=O)CO [PREDNISONE] | Not Active | Not Active
COC(=O)[C@H]1[C@H]2C[C@@H]3c4[nH]c5cc(OC)ccc5c4CCN3C[C@H]2C[C@@H](OC(=O)c2cc(OC)c(OC)c(OC)c2)[C@@H]1OC [RESERPINE] | Not Active | Not Active

Tested on: not listed separately
Assay: DRUGMATRIX: Phosphodiesterase PDE4 enzyme inhibition (substrate: [3H]cAMP + cAMP)
Settings: u-937; Not Active = under 50% inhibition at 10 µM

Compound | IC50 | Ki
CCCCC(=O)N(Cc1ccc(-c2ccccc2-c2nnn[nH]2)cc1)[C@H](C(=O)O)C(C)C | Not Active | Not Active
O=C(O)COc1ccc(C(=O)c2cccs2)c(Cl)c1Cl | Not Active | Not Active
C[C@@](Cc1ccc(O)c(O)c1)(NN)C(=O)O.O [CARBIDOPA] | Not Active | Not Active
O=C(O)CCCCC1CCSS1 (stereo not drawn) [LIPOIC ACID, ALPHA] | Not Active | Not Active
C[C@]12C=CC(=O)C=C1CC[C@@H]1[C@@H]2C(=O)C[C@@]2(C)[C@H]1CC[C@]2(O)C(=O)CO [PREDNISONE] | Not Active | Not Active
COC(=O)[C@H]1[C@H]2C[C@@H]3c4[nH]c5cc(OC)ccc5c4CCN3C[C@H]2C[C@@H](OC(=O)c2cc(OC)c(OC)c(OC)c2)[C@@H]1OC [RESERPINE] | Not Active | Not Active

Tested on: not listed separately
Assay: DRUGMATRIX: Platelet-Derived Growth Factor (PDGF) radioligand binding (ligand: [125I] PDGF)
Type: cell-based
Settings: nih3t3; Not Active = under 50% inhibition at 10 µM

Compound | IC50 | Ki
CCCCC(=O)N(Cc1ccc(-c2ccccc2-c2nnn[nH]2)cc1)[C@H](C(=O)O)C(C)C | Not Active | Not Active
O=C(O)COc1ccc(C(=O)c2cccs2)c(Cl)c1Cl | Not Active | Not Active
C[C@@](Cc1ccc(O)c(O)c1)(NN)C(=O)O.O [CARBIDOPA] | Not Active | Not Active
O=C(O)CCCCC1CCSS1 (stereo not drawn) [LIPOIC ACID, ALPHA] | Not Active | Not Active
C[C@]12C=CC(=O)C=C1CC[C@@H]1[C@@H]2C(=O)C[C@@]2(C)[C@H]1CC[C@]2(O)C(=O)CO [PREDNISONE] | Not Active | Not Active
COC(=O)[C@H]1[C@H]2C[C@@H]3c4[nH]c5cc(OC)ccc5c4CCN3C[C@H]2C[C@@H](OC(=O)c2cc(OC)c(OC)c(OC)c2)[C@@H]1OC [RESERPINE] | Not Active | Not Active

Tested on: not listed separately
Assay: DRUGMATRIX: Purinergic P2X radioligand binding (ligand: [3H] alpha, beta-Methylene-ATP)
Type: cell membranes, Oryctolagus cuniculus, New Zealand albino, Urinary bladder, Membrane
Settings: Not Active = under 50% inhibition at 10 µM

Compound | IC50 | Ki
CCCCC(=O)N(Cc1ccc(-c2ccccc2-c2nnn[nH]2)cc1)[C@H](C(=O)O)C(C)C | Not Active | Not Active
O=C(O)COc1ccc(C(=O)c2cccs2)c(Cl)c1Cl | Not Active | Not Active
C[C@@](Cc1ccc(O)c(O)c1)(NN)C(=O)O.O [CARBIDOPA] | Not Active | Not Active
O=C(O)CCCCC1CCSS1 (stereo not drawn) [LIPOIC ACID, ALPHA] | Not Active | Not Active
C[C@]12C=CC(=O)C=C1CC[C@@H]1[C@@H]2C(=O)C[C@@]2(C)[C@H]1CC[C@]2(O)C(=O)CO [PREDNISONE] | Not Active | Not Active
COC(=O)[C@H]1[C@H]2C[C@@H]3c4[nH]c5cc(OC)ccc5c4CCN3C[C@H]2C[C@@H](OC(=O)c2cc(OC)c(OC)c(OC)c2)[C@@H]1OC [RESERPINE] | Not Active | Not Active

Target: Cytochrome P450 2C19 (Homo sapiens, UniProt P33261); further: in other assays of this panel Not Active means under 50% inhibition at 10 µM
Sequence (P33261 whole entry): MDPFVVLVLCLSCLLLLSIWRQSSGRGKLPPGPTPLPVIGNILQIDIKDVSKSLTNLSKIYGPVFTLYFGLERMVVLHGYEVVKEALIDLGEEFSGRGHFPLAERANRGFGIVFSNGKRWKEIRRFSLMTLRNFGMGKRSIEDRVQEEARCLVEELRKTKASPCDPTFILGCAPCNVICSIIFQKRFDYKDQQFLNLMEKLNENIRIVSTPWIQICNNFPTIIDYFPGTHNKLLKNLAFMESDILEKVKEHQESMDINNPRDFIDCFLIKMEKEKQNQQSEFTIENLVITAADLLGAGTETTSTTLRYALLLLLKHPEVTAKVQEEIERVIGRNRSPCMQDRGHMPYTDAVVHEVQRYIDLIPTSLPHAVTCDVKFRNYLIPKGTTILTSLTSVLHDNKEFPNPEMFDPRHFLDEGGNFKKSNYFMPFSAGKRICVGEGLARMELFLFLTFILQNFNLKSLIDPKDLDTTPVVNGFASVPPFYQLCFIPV
Settings: bti-tn-5b1-4

Compound | IC50 | Ki
CCCCC(=O)N(Cc1ccc(-c2ccccc2-c2nnn[nH]2)cc1)[C@H](C(=O)O)C(C)C | Not Active | Not Active
O=C(O)COc1ccc(C(=O)c2cccs2)c(Cl)c1Cl | Not Active | Not Active
C[C@@](Cc1ccc(O)c(O)c1)(NN)C(=O)O.O [CARBIDOPA] | Not Active | Not Active
O=C(O)CCCCC1CCSS1 (stereo not drawn) [LIPOIC ACID, ALPHA] | Not Active | Not Active
COC(=O)[C@H]1[C@H]2C[C@@H]3c4[nH]c5cc(OC)ccc5c4CCN3C[C@H]2C[C@@H](OC(=O)c2cc(OC)c(OC)c(OC)c2)[C@@H]1OC [RESERPINE] | Not Active | Not Active
